Source: US20100160301A1, “MICROANGIOPATHY TREATMENT AND PREVENTION” (BAYER HEALTHCARE AG, priority 2005, published 2010)

Key:
[1] = test system: thrombus formation in an arteriovenous shunt; assay: Arteriovenous shunt model (rat), antithrombotic action; type: in vivo; conditions: oral dosage, read-out: ED50 [mg/kg] p.o.
Description: Fasting male rats (strain: HSD CPB:WU) having a weight of 200-250 g are anesthetized using a Rompun/Ketavet solution (12 mg/kg/50 mg/kg). Thrombus formation is induced in an arteriovenous shunt following the method described by Christopher N. Berry et al., Br. J. Pharmacol. (1994), 113, 1209-1214. For this, the left jugular vein and the right carotid artery are exposed. An extracorporeal shunt is arranged between the two vessels by means of a 10 cm long polyethylene tube (PE 60). This polyethylene tube was linked in the center to a further 3 cm long polyethylene tube (PE 160), which contained a nylon thread which was roughened and linked to a loop for the production of a thrombogenic surface. The extracorporeal circulation is maintained for 15 minutes. The shunt is then removed and the nylon thread with the thrombus is immediately weighed. The unloaded weight of the nylon thread had been determined before the start of the experiment. Before starting the extracorporeal circulation, test substances are administered to conscious animals either intravenously via the caudal vein or orally by means of stomach tube.

Row | Structure (SMILES) | ED50 [1] [mg/kg] | melting point [°C]
1 | O=C(NC[C@H]1CN(c2ccc(N3CCOCC3=O)cc2)C(=O)O1)c1ccc(Cl)s1 [Example 44, 5-Chloro-N-({(5S)-2-oxo-3-[4-(3-oxo-4-morpholinyl)phenyl]-1,3-oxazolidin-5-yl}methyl)-2-thiophenecarboxamide] | 3 | 
2 | O=C(NC[C@H]1CN(c2ccc(N3CCCOC3=O)cc2)C(=O)O1)c1ccc(Cl)s1 [Example 255] |  | 228 to 230
